Patent publication US20050014766A1, “Use of n-(indolecarbonyl-)piperazine derivatives” (priority 2002, published 2005)

Legend:
mice [1] = experiment: four plate test (model of acute stress anxiety); format: in vivo, mouse; conditions: 5 minute test period
Source text: A typical model of acute stress anxiety is the “four plate test” as described by C. Aron et al., Neuropharmacology 1971, 10: 459-469.
The device consists of a small box whose base is composed of four metal plates. Each time the mouse moves from one plate to the next, it receives a short current pulse on the foot, thus reducing the investigative behaviour. The number of changes from one plate to the next which occur with punishment (i.e. the number of current pulses accepted by the animal) is recorded over a test period of 5 minutes.

mice [2] = experiment: light-dark choice test (model of generalised anxiety disorders); format: in vivo, mouse; conditions: period of 5 minutes
Procedure: A typical model of generalised anxiety disorders is the “light-dark choice test” as described by J. N. Crawly, Pharmacol. Biochem Behav. 1981, 15: 695-699.
The corresponding device for the selection of brightness or darkness consists of two boxes connected to one another, one box being darkened and the other being brightly illuminated. A mouse is placed in one of the boxes, and it is measured how much time the mouse spends in the illuminated box over a period of 5 minutes. Normal mice only go into the illuminated compartment rarely and spend almost all the time in the dark compartment.

[3] = system: recombinant in-bred mice (crossing of the strains C57ML/6J and DBA/2J); experiment: pre-pulse inhibition in recombinant in-bred mice with inherently poor pre-pulse inhibition; format: in vivo; conditions: recombinant mouse strain with poor pre-pulse inhibition
Source text: A typical animal model of schizotypical personality disorders and the prevention of schizophrenia in first-degree relatives is restricted pre-pulse inhibition. Pre-pulse inhibition is a non-species-specific phenomenon in which the normal reflex reactions to discrete sensory events are reduced if slight prior stimulation has been carried out in advance; pre-pulse inhibition can be used to assess sensomotory gating processes. In patients with schizotypical personality disorders and their first-degree relatives (in whom there is a high risk of the development of schizotypical personality disorders), the normal function of pre-pulse inhibition is disturbed (Braff, D. et al., Psychophysiology, 1978; 15:339-343; Braff, D., Arch Gen Psychiatry, 1992; 49:206-215; Bolino, F. et al., Biol Psychiatry, 1994; 36:670-679). Recombinant in-bred mice having an inherently poor pre-pulse inhibition (crossing of the strains C57ML/6J and DBA/2J) represent a corresponding animal model (McCaughran, J. A. Jr. et al., Psychopharmacology 1997; 134:131-140; McCaughran, J. A. Jr. et al., Behav. Genetics, 1999; 29:21-30.).

mice [4] = experiment: hyperlocomotory activity induced by dizocilpine; format: in vivo, mouse
Source text: Animal models of treatment-resistant schizophrenia and psychosis in tardive dyskinesia are so-called stimulant-induced psychoses (Ellison, G., Brain Res. Rev. 1994; 137:193-197). Chronic misuse of ‘dopamine agonists’, such as, for example, amphetamine or cocaine, or antagonists of N-methyl-D-aspartate (NMDA), such as, for example, ketamine, phencyclidine and dizocilpine, causes a syndrome of behavioural effects which has many features in common with the symptom complex of schizophrenia, i.e. these substances induce schizophrenia-like symptoms in healthy people and accelerate psychotic reactions in stabilised schizophrenic patients (Luby, E. D. et al., Am. Med. Assoc. Arch. Neurol. Psychiatry, 1959; 119:61-67; Lahti, A. C. et al., Neuropsychopharmacology, 1995; 13:9-19; Malhotra, A. K. et al., Neuropsychopharmacology, 1996; 14:301-307; Adler, C. M. et al., Biol. Psychiatry 1998; 43:811-816). In rodents, these stimulants cause extreme hyperlocomotory activity (Schaefer, G. J. et al., Neuropharmacology 1984; 23:909-914; Millan, M. J. et al., Eur. J. Neurosci. 1999; 11:419-432; O'Neill, M. F. et al., Psychopharmacology, 1999, 145:237-250).

mice [5] = experiment: isolation-induced fighting behaviour in mice (aggression model); format: in vivo, mouse
Source text: A typical animal model of aggression is the isolation-induced fighting behaviour in mice (Paivarinta, P., Pharmacol. Biochem. Behav., 1992; 42: 35-39; Haller, J. et al., Psychopharmacology, 1996; 126: 345-350). […] The number of bites or bite attacks can be used as a measure of the aggression.

monkeys = experiment: DMTS method (delayed matching to sample) in monkeys; format: in vivo, monkey
Source text: Of the learning models, the DMTS method (DMTS=delayed matching to sample) in monkeys (Buccafusco, J. J. et al., Psychopharmacology, 1995; 120: 256-266; Buccafusco, J. J. et al., Drug Dev. Res., 1996; 38: 196-203; Prendergast, M. A. et al., Pharmacol. Biochem. Behav., 1997; 56: 81-87) is potentially of interest since the various aspects of learning and memory can be measured in this method. An experiment begins with the illumination of a sample key provided with one of three coloured discs. The monkeys are taught to press the illuminated sample key in order to initiate the experiment. After the delay interval, the two keys available for selection illuminate, but not the sample key. One of the two keys available for selection is offered with the colour that the sample key had before the delay interval, while the other (wrong) key available for selection has one of the two other colours. If the monkey makes the correct assignment (i.e. if it presses the key available for selection which has the same colour as the stimulus key), the response is rewarded. […] Finally, all stimulus equalisation measures were assigned to the delay duration. […]

rats = experiment: T-labyrinth learning and memory model in rats; format: in vivo, rat; conditions: after denial of food
Source text: In a learning and memory model in rats, the T-labyrinth method is used, in which rats, after denial of food, have to learn to find a reward in the arm of the labyrinth which is opposite the arm in which the reward was offered in the previous experiment (Moran, P. et al., Brain Res. 1992; 569:156-158).

N#Cc1c[nH]c2c(C(=O)N3CCN(CCc4ccc(F)cc4)CC3)cccc12 [(3-cyano-1H-indol-7-yl)[4-(4-fluorophenethyl)piperazin-1-yl]methanone]
number of changes with punishment (mice [1]): increases the number of changes with punishment
time spent by the mice in the illuminated compartment (mice [2]): increases the time spent by the mice in the illuminated compartment
deficits in pre-pulse inhibition [3]: significantly reduces the deficits in pre-pulse inhibition
hyperlocomotory activity induced by dizocilpine (mice [4]): significantly reduces hyperlocomotory activity
isolation-induced fighting behaviour (mice [5]): reduces the isolation-induced fighting behaviour
DMTS hit rate and general aspects of working memory (monkeys): clearly improves the DMTS hit rate
learning and memory in the T-labyrinth (rats): has memory-promoting effects in the learning process and facilitates better and faster learning with a shorter performance time
